Tests used:
[1] = target: T1, cathepsin S (Homo sapiens, UniProt P25774); test: kobs/I of activity-based probes, cathepsin S; assay type: biochemical; conditions: Fig. 6A; pseudo-first order, probe at least 5-fold excess over cathepsin, 100 μM ACC substrate; pH 5.5, 37 °C; triplicate, SD below 20%
T1 construct: made in house
Method: (§1) All kinetic experiments were performed using fMax (Molecular Devices) and CLARIOStar (BMG LABTECH) spectrofluorimeters operating in kinetic mode using 96-well plates. ACC-labeled substrates were screened using 355 nm and 460 nm wavelengths (excitation and emission, respectively). […] The buffer was prepared at room temperature and the enzyme kinetic studies were performed at 37 °C.
(§2) For the kinetic studies, five recombinant human cathepsins (B, L, V, K and S) were expressed and purified and active site titrated using an E64 inhibitor. The kobs/I parameter was measured under pseudo-first order kinetic conditions, as described.[40] The cathepsin of interest was mixed with various concentrations of probe (at least 5-fold excess over cathepsin) and 100 μM ACC-fluorescence substrate. The experiments were repeated at least three times, and the results are presented as an average. The SDs were below 20%.

[2] = tested on: cathepsins L, V, B, S and K; test: Labeling of recombinant cathepsins by Cy5 probes, SDS-PAGE; assay type: biochemical, human; conditions: cathepsins 10 nM or 100 nM, probe/enzyme ratio 0.2, 1, 5 and 25, 30 min, Cy5 scan
Method: In experiment A, the probe concentrations were 2 nM, 10 nM, 50 nM and 250 nM, while in experiment B the probe concentrations were 20 nM, 100 nM, 500 nM and 2.5 μM. The reaction volume for all the samples was 200 μL. After 30 min, 100 μL of 3× SDS/DTT was added to the reaction mixtures, the samples were boiled for 5 min, and then 20 μL of the sample was run on 4–12% Bis-Tris Plus 15-well gels for 30 min at 200 V with 2 μL of PageRuler™ Prestained Protein Ladder. The gels were then directly scanned at 700 nm (red channel for Cy5 detection; excitation 685 nm) using an Odyssey fluorescence imaging system (LI-COR) and the images were analyzed using Image Studio software.

[3] = target: T2, cathepsin B (Homo sapiens, UniProt P07858); test: kobs/I of activity-based probes, cathepsin B; assay type: biochemical; conditions: Fig. 6A; pseudo-first order, probe at least 5-fold excess over cathepsin, 100 μM ACC substrate; pH 5.5, 37 °C; triplicate, SD below 20%
T2 construct: made in house
Method: as §1, §2

[4] = target: T3, cathepsin V (Homo sapiens, UniProt O60911); test: kobs/I of activity-based probes, cathepsin V; assay type: biochemical; conditions: Fig. 6A; pseudo-first order, probe at least 5-fold excess over cathepsin, 100 μM ACC substrate; pH 5.5, 37 °C; triplicate, SD below 20%
T3 construct: made in house
T3 sequence (O60911 114-334): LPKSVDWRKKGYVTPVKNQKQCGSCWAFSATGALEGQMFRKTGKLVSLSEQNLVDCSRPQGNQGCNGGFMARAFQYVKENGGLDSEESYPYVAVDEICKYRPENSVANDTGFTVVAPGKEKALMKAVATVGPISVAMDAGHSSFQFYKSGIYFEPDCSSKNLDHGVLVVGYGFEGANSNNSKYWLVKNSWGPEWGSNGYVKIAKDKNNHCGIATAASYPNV
Method: as §1, §2

T1 sequence (P25774 115-331): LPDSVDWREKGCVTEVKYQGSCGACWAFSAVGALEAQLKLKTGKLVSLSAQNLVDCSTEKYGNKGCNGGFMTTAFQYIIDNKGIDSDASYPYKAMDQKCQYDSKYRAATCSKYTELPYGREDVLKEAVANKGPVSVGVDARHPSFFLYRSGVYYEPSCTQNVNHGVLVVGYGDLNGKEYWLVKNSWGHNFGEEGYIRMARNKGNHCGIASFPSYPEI

## Cy5-6-ahx-His-DThr-Phe(F5)-Cys(Bzl)-AOMK [MP-cL3]
[1]
  kobs/I Cath-S: 225 M⁻¹ s⁻¹
[2]
  labeling of recombinant cathepsins L, V, B, S and K: very high degree of selectivity
[3]
  kobs/I Cath-B: 780 M⁻¹ s⁻¹
[4]
  kobs/I Cath-V: 380 M⁻¹ s⁻¹

Source: PMC5896380, “Selective imaging of cathepsin L in breast cancer by fluorescent activity-based probes” (Chemical Science, 2018)
